As a reminder, the IC50 is the concentration at which inhibition is half-maximal.

The target in one experiment is human sodium ion channel 1.7 (hNav1.7) (Homo sapiens, UniProt Q15858). The experiment in a line: Blocking effect against sodium ion channel Nav1.7, IonFlux16 auto patch clamp in hNav1.7 HEK293 cells. Format: cell-based.
Sequence of human sodium ion channel 1.7 (hNav1.7) (Q15858 whole entry): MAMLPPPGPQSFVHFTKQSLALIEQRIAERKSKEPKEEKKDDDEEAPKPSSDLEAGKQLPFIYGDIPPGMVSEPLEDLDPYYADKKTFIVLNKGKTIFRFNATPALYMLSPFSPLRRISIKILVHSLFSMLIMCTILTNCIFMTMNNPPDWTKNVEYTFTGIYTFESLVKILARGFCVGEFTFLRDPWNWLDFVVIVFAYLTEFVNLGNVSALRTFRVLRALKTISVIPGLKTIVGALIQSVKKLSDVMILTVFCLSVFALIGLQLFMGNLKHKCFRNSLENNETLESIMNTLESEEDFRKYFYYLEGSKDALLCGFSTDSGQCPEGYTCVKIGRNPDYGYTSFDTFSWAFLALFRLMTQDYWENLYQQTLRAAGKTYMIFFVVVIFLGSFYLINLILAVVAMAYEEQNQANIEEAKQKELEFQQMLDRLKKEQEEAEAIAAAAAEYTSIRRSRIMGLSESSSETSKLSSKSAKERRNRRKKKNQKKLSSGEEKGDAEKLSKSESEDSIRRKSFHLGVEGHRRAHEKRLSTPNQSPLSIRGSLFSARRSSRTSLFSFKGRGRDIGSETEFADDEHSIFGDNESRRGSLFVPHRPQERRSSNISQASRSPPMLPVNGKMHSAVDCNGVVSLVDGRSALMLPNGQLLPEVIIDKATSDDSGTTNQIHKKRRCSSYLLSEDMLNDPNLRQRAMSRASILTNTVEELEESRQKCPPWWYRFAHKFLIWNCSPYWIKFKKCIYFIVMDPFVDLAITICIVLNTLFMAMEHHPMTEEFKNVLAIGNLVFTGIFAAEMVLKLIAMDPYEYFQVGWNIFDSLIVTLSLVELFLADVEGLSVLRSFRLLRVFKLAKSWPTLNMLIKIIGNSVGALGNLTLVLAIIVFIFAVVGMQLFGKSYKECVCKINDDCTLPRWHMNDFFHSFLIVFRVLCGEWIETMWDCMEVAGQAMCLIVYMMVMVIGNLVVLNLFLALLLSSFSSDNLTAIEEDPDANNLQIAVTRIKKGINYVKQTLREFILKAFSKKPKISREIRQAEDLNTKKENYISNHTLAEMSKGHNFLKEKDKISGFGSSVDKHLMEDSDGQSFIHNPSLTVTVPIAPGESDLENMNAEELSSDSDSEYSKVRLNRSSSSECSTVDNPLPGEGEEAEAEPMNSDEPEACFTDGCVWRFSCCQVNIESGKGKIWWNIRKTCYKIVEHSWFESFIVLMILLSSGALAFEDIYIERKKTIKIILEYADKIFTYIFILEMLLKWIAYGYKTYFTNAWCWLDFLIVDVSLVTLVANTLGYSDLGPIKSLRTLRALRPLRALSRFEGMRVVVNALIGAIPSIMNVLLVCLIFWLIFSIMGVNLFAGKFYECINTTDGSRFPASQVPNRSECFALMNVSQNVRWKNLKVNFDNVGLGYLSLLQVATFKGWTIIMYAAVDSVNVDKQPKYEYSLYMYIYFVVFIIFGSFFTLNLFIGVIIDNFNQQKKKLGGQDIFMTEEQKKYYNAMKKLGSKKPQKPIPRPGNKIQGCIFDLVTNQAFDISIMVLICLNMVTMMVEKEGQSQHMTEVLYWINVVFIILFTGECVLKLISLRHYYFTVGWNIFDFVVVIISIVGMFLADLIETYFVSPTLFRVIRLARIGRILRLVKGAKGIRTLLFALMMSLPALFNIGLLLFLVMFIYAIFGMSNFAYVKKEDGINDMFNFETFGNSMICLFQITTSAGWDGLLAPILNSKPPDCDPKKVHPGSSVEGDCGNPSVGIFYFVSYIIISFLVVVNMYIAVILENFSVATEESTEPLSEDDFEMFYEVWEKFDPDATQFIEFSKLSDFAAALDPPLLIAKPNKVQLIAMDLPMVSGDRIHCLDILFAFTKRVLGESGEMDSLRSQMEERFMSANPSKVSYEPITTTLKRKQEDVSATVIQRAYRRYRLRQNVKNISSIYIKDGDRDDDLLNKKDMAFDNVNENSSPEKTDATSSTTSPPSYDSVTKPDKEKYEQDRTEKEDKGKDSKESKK
Details: not given
Background: In patch-clamp work, channel activity is measured electrically.
Turning to `CS(=O)(=O)NC(=O)c1cc(Cl)c(-n2nc(-c3cccc(Cl)c3F)c3cc(Cl)ccc32)cc1F` [Example 79, 5-chloro-4-(5-chloro-3-(3-chloro-2-fluorophenyl)-1H-indazol-1-yl)-2-fluoro-N-(methylsulfonyl)benzamide], it took 0.07 µM to reach half-maximal inhibition (IC50).

`CS(=O)(=O)NC(=O)c1cc(Cl)c(-n2cc(-c3cccc(Cl)c3F)c3cc(F)cnc32)cc1F` [Example 211, 5-chloro-4-(3-(3-chloro-2-fluorophenyl)-5-fluoro-1H-pyrrolo[2,3-b]pyridin-1-yl)-2-fluoro-N-(methylsulfonyl)benzamide] registered an IC50 of 0.04 µM.

Staying with this experiment, now noted: hNav1.7 HEK293 cells; inhibition of peak current after 50 seconds treatment; eight concentrations; read-out: IC50.
In the case of `CS(=O)(=O)NC(=O)c1cc(Cl)c(-n2nc(-c3ccc(OC(F)(F)F)cc3)c3cc(Cl)ccc32)cc1F` [Example 83, 5-chloro-4-(5-chloro-3-(4-(trifluoromethoxy)phenyl)-1H-indazol-1-yl)-2-fluoro-N-(methylsulfonyl)benzamide], the IC50 worked out at 0.08 µM.

In the case of `CS(=O)(=O)NC(=O)c1cc(Cl)c(-n2nc(-c3ccccc3Cl)c3cc(F)ccc32)cc1F` [Example 144, 5-chloro-4-(3-(2-chlorophenyl)-5-fluoro-1H-indazol-1-yl)-2-fluoro-N-(methylsulfonyl)benzamide], the IC50 came out at 0.54 µM.

For the compound `CS(=O)(=O)NC(=O)c1cc(Cl)c(-n2cc(Cl)c3ccc(OCc4ccccc4)cc32)cc1F` [Example 271, 4-(6-(benzyloxy)-3-chloro-1H-indol-1-yl)-5-chloro-2-fluoro-N-(methylsulfonyl)benzamide], the 50% inhibitory concentration (IC50) is 2.13 µM.

As to `CS(=O)(=O)NC(=O)c1cc(Cl)c(-n2nc(-c3cc[nH]n3)c3cc(Cl)ccc32)cc1F` [Example 90, 5-chloro-4-(5-chloro-3-(1H-pyrazol-3-yl)-1H-indazol-1-yl)-2-fluoro-N-(methylsulfonyl)benzamide], the IC50 is 11.2 µM.

As for `CN(C)S(=O)(=O)NC(=O)c1cc(Cl)c(-n2nc(Cl)c3cc(OCc4ccccc4)ccc32)cc1F` [Example 43, 4-(5-(benzyloxy)-3-chloro-1H-indazol-1-yl)-5-chloro-N—(N,N-dimethylsulfamoyl)-2-fluorobenzamide], the IC50 came out at 0.2 µM.

Regarding `COc1ccccc1-c1nn(-c2cc(Cl)c(C(=O)NS(C)(=O)=O)cc2F)c2ccc(Cl)cc12` [Example 107, 2-chloro-4-(5-chloro-3-(2-methoxyphenyl)-1H-indazol-1-yl)-5-fluoro-N-(methylsulfonyl)benzamide], the half-inhibitory concentration (IC50) is 0.811 µM.

Consider `CN(C)S(=O)(=O)NC(=O)c1cc(Cl)c(-n2nc(-c3ccc(Cl)cc3F)c3cc(Cl)ccc32)cc1F` [Example 138, 5-chloro-4-(5-chloro-3-(4-chloro-2-fluorophenyl)-1H-indazol-1-yl)-N—(N,N-dimethylsulfamoyl)-2-fluorobenzamide], for which the IC50 came out at 0.1 µM.

With `CC(C)(O)C#Cc1nn(-c2cc(F)c(C(=O)NS(C)(=O)=O)cc2Cl)c2ccc(Cl)cc12` [Example 129, 5-chloro-4-(5-chloro-3-(3-hydroxy-3-methylbut-1-yn-1-yl)-1H-indazol-1-yl)-2-fluoro-N-(methylsulfonyl)benzamide], the IC50 stood at 1.74 µM.

As to `CS(=O)(=O)NC(=O)c1cc(Cl)c(-n2cc(-c3ccc(C(F)(F)F)cc3)c3cccnc32)cc1F` [Example 218, 5-chloro-2-fluoro-N-(methylsulfonyl)-4-(3-(4-(trifluoromethyl)phenyl)-1H-pyrrolo[2,3-b]pyridin-1-yl)benzamide], the 50% inhibitory concentration (IC50) stood at 0.29 µM.

Turning to `CS(=O)(=O)NC(=O)c1cc(Cl)c(-n2nc(-c3cn[nH]c3)c3cc(Cl)ccc32)cc1F` [Example 89, 5-chloro-4-(5-chloro-3-(1H-pyrazol-4-yl)-1H-indazol-1-yl)-2-fluoro-N-(methylsulfonyl)benzamide], the IC50 is more than 10 µM.

For `CS(=O)(=O)NC(=O)c1ccc(-n2nc(-c3ccc(C#N)cc3)c3cc(Cl)ccc32)c(C#N)c1` [Example 96, 4-(5-chloro-3-(4-cyanophenyl)-1H-indazol-1-yl)-3-cyano-N-(methylsulfonyl)benzamide], the IC50 is more than 10 µM.

Take `Cc1nn(-c2cc(F)c(C(=O)NS(C)(=O)=O)cc2Cl)c2ccc([N+](=O)[O-])cc12` [Example 14, 5-chloro-2-fluoro-4-(3-methyl-5-nitro-1H-indazol-1-yl)-N-(methylsulfonyl)benzamide]: the IC50 lay within 3 to 10 µM.

For the compound `CS(=O)(=O)NC(=O)c1cc(Cl)c(-n2nc(Cl)c3cc(-c4ccc(Cl)cc4)ccc32)cc1F` [Example 255, 5-chloro-4-(3-chloro-5-(4-chlorophenyl)-1H-indazol-1-yl)-2-fluoro-N-(methylsulfonyl)benzamide], the IC50 came out at 0.83 µM.

On to `CS(=O)(=O)NC(=O)c1cc(Cl)c(-n2nc(Cl)c3cc(Br)ccc32)cc1F` [Example 21, 4-(5-bromo-3-chloro-1H-indazol-1-yl)-5-chloro-2-fluoro-N-(methylsulfonyl)benzamide], for which the half-maximal inhibitory concentration (IC50) came out at 0.175 µM.

On to `CS(=O)(=O)NC(=O)c1cc(Cl)c(-n2nc(Cl)c3cc(OCC4CCCCC4)ccc32)cc1F` [Example 34, 5-chloro-4-(3-chloro-5-(cyclohexylmethoxy)-1H-indazol-1-yl)-2-fluoro-N-(methylsulfonyl)benzamide], for which the IC50 is 0.211 µM.

Regarding `O=c1[nH]nc(-c2cc(Cl)c(-n3nc(-c4ccc(Cl)cc4F)c4cc(Cl)ccc43)cc2F)[nH]1` [Example 291, 5-(5-chloro-4-(5-chloro-3-(4-chloro-2-fluorophenyl)-1H-indazol-1-yl)-2-fluorophenyl)-2,4-dihydro-3H-1,2,4-triazol-3-one], the IC50 came to 10.8 µM.

As to `COc1ccc(-c2cnc3c(c2)c(Cl)cn3-c2cc(F)c(C(=O)NS(C)(=O)=O)cc2Cl)cc1` [Example 260, 5-chloro-4-(3-chloro-5-(4-methoxyphenyl)-1H-pyrrolo[2,3-b]pyridin-1-yl)-2-fluoro-N-(methylsulfonyl)benzamide], the IC50 turned out to be 0.47 µM.

Turning to `CS(=O)(=O)NC(=O)c1cc(Cl)c(-n2nc(-c3ccc([N+](=O)[O-])cc3)c3cc(Cl)ccc32)cc1F` [Example 81, 5-chloro-4-(5-chloro-3-(4-nitrophenyl)-1H-indazol-1-yl)-2-fluoro-N-(methylsulfonyl)benzamide], the IC50 was determined as 0.24 µM.

Regarding `CS(=O)(=O)NC(=O)c1cc(Cl)c(-n2nc(Cl)c3cc(-c4ccncc4)ccc32)cc1F` [Example 232, 5-chloro-4-(3-chloro-5-(pyridin-4-yl)-1H-indazol-1-yl)-2-fluoro-N-(methylsulfonyl)benzamide], the IC50 lay in the range of 1 to 3 µM.

On to `CS(=O)(=O)NC(=O)c1cc(Cl)c(-n2nc(/C=C/c3ccccc3F)c3cc(Cl)ccc32)cc1F` [Example 135, (E)-5-chloro-4-(5-chloro-3-(2-fluorostyryl)-1H-indazol-1-yl)-2-fluoro-N-(methylsulfonyl)benzamide], for which the concentration for half-maximal inhibition (IC50) is 0.37 µM.

Turning to `Cc1cc(F)ccc1-c1cn(-c2cc(F)c(C(=O)NS(C)(=O)=O)cc2Cl)c2ncc(F)cc12` [Example 212, 5-chloro-2-fluoro-4-(5-fluoro-3-(4-fluoro-2-methylphenyl)-1H-pyrrolo[2,3-b]pyridin-1-yl)-N-(methylsulfonyl)benzamide], the 50% inhibitory concentration (IC50) was 0.18 µM.

For `COc1ccc(-c2nn(-c3ccc(C(=O)NS(C)(=O)=O)cc3C#N)c3ccc(Cl)cc23)cc1` [Example 93, 4-(5-chloro-3-(4-methoxyphenyl)-1H-indazol-1-yl)-3-cyano-N-(methylsulfonyl)benzamide], the IC50 stood at 0.226 µM.

Regarding `CS(=O)(=O)NC(=O)c1cc(Cl)c(-n2nc(-c3c(F)cccc3Cl)c3cc(Cl)ccc32)cc1F` [Example 78, 5-chloro-4-(5-chloro-3-(2-chloro-6-fluorophenyl)-1H-indazol-1-yl)-2-fluoro-N-(methylsulfonyl)benzamide], the IC50 came to 0.13 µM.

With `CS(=O)(=O)NC(=O)c1cc(Cl)c(-n2nc(Cl)c3cc(-c4cccc(F)c4)ccc32)cc1F` [Example 235, 5-chloro-4-(3-chloro-5-(3-fluorophenyl)-1H-indazol-1-yl)-2-fluoro-N-(methylsulfonyl)benzamide], the IC50 came out at 0.089 µM.

`Cc1cc(F)ccc1-c1cn(-c2cc(F)c(C(=O)NS(C)(=O)=O)cc2Cl)c2ncc(Cl)cc12` [Example 200, 5-chloro-4-(5-chloro-3-(4-fluoro-2-methylphenyl)-1H-pyrrolo[2,3-b]pyridin-1-yl)-2-fluoro-N-(methylsulfonyl)benzamide]: the concentration for half-maximal inhibition (IC50) was 0.09 µM.

Consider `CS(=O)(=O)NC(=O)c1cc(Cl)c(-n2nc(Cl)c3cc(-c4cccc(C(F)(F)F)c4)ccc32)cc1F` [Example 249, 5-chloro-4-(3-chloro-5-(3-(trifluoromethyl)phenyl)-1H-indazol-1-yl)-2-fluoro-N-(methylsulfonyl)benzamide], for which the IC50 was 0.074 µM.

As for `CS(=O)(=O)NC(=O)c1cc(Cl)c(-n2nc(-c3cccc(C(F)(F)F)c3)c3ccccc32)cc1F` [Example 172, 5-chloro-2-fluoro-N-(methylsulfonyl)-4-(3-(3-(trifluoromethyl)phenyl)-1H-indazol-1-yl)benzamide], the concentration for half-maximal inhibition (IC50) is 0.14 µM.

Consider `CS(=O)(=O)NC(=O)c1cc(F)c(-n2nc(-c3ccccc3F)c3cc(Cl)ccc32)cc1Cl` [Example 113, 2-chloro-4-(5-chloro-3-(2-fluorophenyl)-1H-indazol-1-yl)-5-fluoro-N-(methylsulfonyl)benzamide], for which the IC50 amounted to 0.752 µM.

As to `CS(=O)(=O)NC(=O)c1cc(Cl)c(-n2cc(Cl)c3cc(OCc4ccccc4)ccc32)cc1F` [Example 269, 4-(5-(benzyloxy)-3-chloro-1H-indol-1-yl)-5-chloro-2-fluoro-N-(methylsulfonyl)benzamide], the IC50 was 0.142 µM.

In the case of `CS(=O)(=O)NC(=O)c1cc(Cl)c(-n2nc(-c3cccc(C#N)c3)c3ccccc32)cc1F` [Example 181, 5-chloro-4-(3-(3-cyanophenyl)-1H-indazol-1-yl)-2-fluoro-N-(methylsulfonyl)benzamide], the IC50 was 0.837 µM.

Consider `CS(=O)(=O)NC(=O)c1cc(Cl)c(-n2nc(Br)c3cc(Cl)ccc32)cc1F` [Example 19, 4-(3-bromo-5-chloro-1H-indazol-1-yl)-5-chloro-2-fluoro-N-(methylsulfonyl)benzamide], for which the IC50 was determined as 0.216 µM.

Values taken from patent US10590078B2, “Sodium channel blockers” (Daewoong Pharmaceutical Co., Ltd., priority 2015, dated 2020).
